In US9211310B2, “Use of a Chinese medicine composition in preparing medicaments for treating secondary prevention of myocardial infarction” (TASLY PHARMACEUTICAL GROUP CO., LTD, priority 2010, dated 2015):

Tested on: patients after acute myocardial infarction
Assay: TCM symptom score, total and single (chest pain, chest tightness, short breath, fatigue, palpitation, spontaneous perspiration, pale complexion), same clinical trial
Assay type: in vivo, human
Design: total score of TCM symptom, Mean / total score of TCM symptom, Min / total score of TCM symptom, Max / total score of TCM symptom, Md / change of total score of TCM symptom, Mean / change of total score of TCM symptom, Max / change of total score of TCM symptom, Md: scale not given here
Details: FAS
From the text: 3508 patients who were in accordance with the diagnostic standards of AMI for 28 days to 2 years and differentiated as Qi deficiency and blood stagnation syndrome by TCM were studied. 0.5 g Chinese medicine composition prepared by the method of EXAMPLE 1 (Coded as QSYQ) was administrated half an hour after meal, 3 times per day.
They included the overall survival time, angina pectoris score, TCM symptom score and life quality score, where angina pectoris score, TCM symptom score and life quality score were evaluated at randomization, in 1st, 3rd, 6th, 9th, 12th month after treatment and 18th month after follow-up.
The analysis method referred to the angina pectoris score.

[1] = 1 month after treatment-baseline
[2] = 3 month after treatment-baseline

CC(=O)Oc1ccccc1C(=O)O [Control group, aspirine]
total score of TCM symptom, Max (1 month after treatment): 34.00 | total score of TCM symptom, Md (1 month after treatment): 11.00 | total score of TCM symptom, Mean (1 month after treatment): 11.84 | total score of TCM symptom, Min (1 month after treatment): 0.00 | change of fatigue 0, % of patients [1]: (72.40%) | change of fatigue 0, number of patients [1]: 1238 | change of fatigue 1, % of patients [1]: (0.06%) | change of fatigue 1, number of patients [1]: 1 | change of fatigue 2, % of patients [1]: (17.72%) | change of fatigue 2, number of patients [1]: 303 | change of fatigue 4, % of patients [1]: (2.63%) | change of fatigue 4, number of patients [1]: 45 | change of fatigue 6, % of patients [1]: (0.76%) | change of fatigue 6, number of patients [1]: 13 | change of fatigue −2, % of patients [1]: (5.73%) | change of fatigue −2, number of patients [1]: 98 | change of fatigue −4, % of patients [1]: (0.64%) | change of fatigue −4, number of patients [1]: 11 | change of fatigue −6, % of patients [1]: (0.06%) | change of fatigue −6, number of patients [1]: 1 | change of pale complexion 0, number of patients [1]: 1477 | change of pale complexion 0, percent of patients [1]: (86.48%) | change of pale complexion 1, number of patients [1]: 166 | change of pale complexion 1, percent of patients [1]: (9.72%) | change of pale complexion −1, number of patients [1]: 65 | change of pale complexion −1, percent of patients [1]: (3.81%) | change of palpitation 0, number of patients [1]: 1242 | change of palpitation 0, percent of patients [1]: (72.63%) | change of palpitation 1, number of patients [1]: 334 | change of palpitation 1, percent of patients [1]: (19.53%) | change of palpitation 2, number of patients [1]: 25 | change of palpitation 2, percent of patients [1]: (1.46%) | change of palpitation 3, number of patients [1]: 5 | change of palpitation 3, percent of patients [1]: (0.29%) | change of palpitation −1, number of patients [1]: 103 | change of palpitation −1, percent of patients [1]: (6.02%) | change of palpitation −2, number of patients [1]: 1 | change of palpitation −2, percent of patients [1]: (0.06%) | change of palpitation −3, number of patients [1]: 0 | change of palpitation −3, percent of patients [1]: (0.00%) | change of short breath 0, % of patients [1]: (77.37%) | change of short breath 0, number of patients [1]: 1323 | change of short breath 2, % of patients [1]: (14.74%) | change of short breath 2, number of patients [1]: 252 | change of short breath 4, % of patients [1]: (1.75%) | change of short breath 4, number of patients [1]: 30 | change of short breath 6, % of patients [1]: (0.41%) | change of short breath 6, number of patients [1]: 7 | change of short breath −2, % of patients [1]: (5.26%) | change of short breath −2, number of patients [1]: 90 | change of short breath −4, % of patients [1]: (0.47%) | change of short breath −4, number of patients [1]: 8 | change of short breath −6, % of patients [1]: (0.00%) | change of short breath −6, number of patients [1]: 0 | change of spontaneous perspiration 0, number of patients [1]: 1249 | change of spontaneous perspiration 0, percent of patients [1]: (73.08%) | change of spontaneous perspiration 1, number of patients [1]: 279 | change of spontaneous perspiration 1, percent of patients [1]: (16.33%) | change of spontaneous perspiration 2, number of patients [1]: 51 | change of spontaneous perspiration 2, percent of patients [1]: (2.98%) | change of spontaneous perspiration 3, number of patients [1]: 16 | change of spontaneous perspiration 3, percent of patients [1]: (0.94%) | change of spontaneous perspiration −1, number of patients [1]: 94 | change of spontaneous perspiration −1, percent of patients [1]: (5.50%) | change of spontaneous perspiration −2, number of patients [1]: 17 | change of spontaneous perspiration −2, percent of patients [1]: (0.99%) | change of spontaneous perspiration −3, number of patients [1]: 3 | change of spontaneous perspiration −3, percent of patients [1]: (0.18%) | change of total score of TCM symptom, Max [1]: 24.00 | change of total score of TCM symptom, Md [1]: 0.00 | change of total score of TCM symptom, Mean [1]: −1.96 | change of total score of TCM symptom, Min [1]: −33.00 | change of total score of TCM symptom, Max [2]: 19.00 | change of total score of TCM symptom, Md [2]: −2.00 | change of total score of TCM symptom, Mean [2]: −2.91 | change of total score of TCM symptom, Min [2]: −33.00 | distribution of total score of TCM symptom: Medium, number of patients (3 months after treatment): 546 | distribution of total score of TCM symptom: Medium, percentage of patients (3 months after treatment): (33.58%) | distribution of total score of TCM symptom: Mild, number of patients (3 months after treatment): 1066 | distribution of total score of TCM symptom: Mild, percentage of patients (3 months after treatment): (65.56%) | distribution of total score of TCM symptom: Severe, number of patients (3 months after treatment): 14 | distribution of total score of TCM symptom: Severe, percentage of patients (3 months after treatment): (0.86%) | fatigue score 0, % of patients (3 months after treatment): (27.96%) | fatigue score 0, number of patients (3 months after treatment): 480 | fatigue score 2, % of patients (3 months after treatment): (59.76%) | fatigue score 2, number of patients (3 months after treatment): 1026 | fatigue score 4, % of patients (3 months after treatment): (11.47%) | fatigue score 4, number of patients (3 months after treatment): 197 | fatigue score 6, % of patients (3 months after treatment): (0.82%) | fatigue score 6, number of patients (3 months after treatment): 14 | pale complexion score 0, number of patients (3 months after treatment): 809 | pale complexion score 0, percent of patients (3 months after treatment): (47.12%) | pale complexion score 1, number of patients (3 months after treatment): 677 | pale complexion score 1, percent of patients (3 months after treatment): (39.43%) | pale complexion score 2, number of patients (3 months after treatment): 210 | pale complexion score 2, percent of patients (3 months after treatment): (12.23%) | pale complexion score 3, number of patients (3 months after treatment): 21 | pale complexion score 3, percent of patients (3 months after treatment): (1.22%) | palpitation score 0, number of patients (3 months after treatment): 480 | palpitation score 0, percent of patients (3 months after treatment): (27.96%) | palpitation score 2, number of patients (3 months after treatment): 894 | palpitation score 2, percent of patients (3 months after treatment): (52.07%) | palpitation score 4, number of patients (3 months after treatment): 310 | palpitation score 4, percent of patients (3 months after treatment): (18.05%) | palpitation score 6, number of patients (3 months after treatment): 33 | palpitation score 6, percent of patients (3 months after treatment): (1.92%) | short breath score 0, % of patients (3 months after treatment): (21.78%) | short breath score 0, number of patients (3 months after treatment): 374 | short breath score 3, % of patients (3 months after treatment): (58.94%) | short breath score 3, number of patients (3 months after treatment): 1012 | short breath score 6, % of patients (3 months after treatment): (18.52%) | short breath score 6, number of patients (3 months after treatment): 318 | short breath score 9, % of patients (3 months after treatment): (0.76%) | short breath score 9, number of patients (3 months after treatment): 13 | spontaneous perspiration score 0, number of patients (3 months after treatment): 667 | spontaneous perspiration score 0, percent of patients (3 months after treatment): (38.85%) | spontaneous perspiration score 1, number of patients (3 months after treatment): 846 | spontaneous perspiration score 1, percent of patients (3 months after treatment): (49.27%) | spontaneous perspiration score 2, number of patients (3 months after treatment): 190 | spontaneous perspiration score 2, percent of patients (3 months after treatment): (11.07%) | spontaneous perspiration score 3, number of patients (3 months after treatment): 14 | spontaneous perspiration score 3, percent of patients (3 months after treatment): (0.82%) | total score of TCM symptom, Max (3 months after treatment): 33.00
